The source of these data is ChEMBL document CHEMBL1154884, “Synthesis and biological evaluation of triazol-4-ylphenyl-bearing histone deacetylase inhibitors as anticancer agents” (J Med Chem, 2010).

The structures appear in SMILES notation. pIC50: −log10 of the molar value. A value given as a limit tells only on which side of the number the result lay.

Assay [1] has as its target Histone deacetylase 3 (Homo sapiens, UniProt O15379).
Description: Inhibition of HDAC3 assessed as blockade of decorboxylation of carboxyfluorescein labeled acetylated peptide substrate after 17 hrs
Assay [2] concerns the target T1, Histone deacetylase 8 (Homo sapiens, UniProt Q9BY41).
T1 sequence (Q9BY41 whole entry): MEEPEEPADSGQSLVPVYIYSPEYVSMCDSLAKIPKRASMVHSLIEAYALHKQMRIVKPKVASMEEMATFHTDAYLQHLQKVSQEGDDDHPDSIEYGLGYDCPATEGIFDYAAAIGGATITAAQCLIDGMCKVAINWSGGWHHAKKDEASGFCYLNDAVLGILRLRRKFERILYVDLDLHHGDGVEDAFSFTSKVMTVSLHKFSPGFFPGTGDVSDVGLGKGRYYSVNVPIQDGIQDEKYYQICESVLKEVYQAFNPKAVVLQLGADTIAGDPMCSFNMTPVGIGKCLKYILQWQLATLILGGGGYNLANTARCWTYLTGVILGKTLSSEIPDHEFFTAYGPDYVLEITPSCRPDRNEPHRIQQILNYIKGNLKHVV
Description: Inhibition of HDAC8 assessed as blockade of decorboxylation of carboxyfluorescein labeled acetylated peptide substrate after 17 hrs

Assay [3] has as its target T2, Polyamine deacetylase HDAC10 (Homo sapiens, UniProt Q969S8).
T2 sequence (Q969S8 whole entry): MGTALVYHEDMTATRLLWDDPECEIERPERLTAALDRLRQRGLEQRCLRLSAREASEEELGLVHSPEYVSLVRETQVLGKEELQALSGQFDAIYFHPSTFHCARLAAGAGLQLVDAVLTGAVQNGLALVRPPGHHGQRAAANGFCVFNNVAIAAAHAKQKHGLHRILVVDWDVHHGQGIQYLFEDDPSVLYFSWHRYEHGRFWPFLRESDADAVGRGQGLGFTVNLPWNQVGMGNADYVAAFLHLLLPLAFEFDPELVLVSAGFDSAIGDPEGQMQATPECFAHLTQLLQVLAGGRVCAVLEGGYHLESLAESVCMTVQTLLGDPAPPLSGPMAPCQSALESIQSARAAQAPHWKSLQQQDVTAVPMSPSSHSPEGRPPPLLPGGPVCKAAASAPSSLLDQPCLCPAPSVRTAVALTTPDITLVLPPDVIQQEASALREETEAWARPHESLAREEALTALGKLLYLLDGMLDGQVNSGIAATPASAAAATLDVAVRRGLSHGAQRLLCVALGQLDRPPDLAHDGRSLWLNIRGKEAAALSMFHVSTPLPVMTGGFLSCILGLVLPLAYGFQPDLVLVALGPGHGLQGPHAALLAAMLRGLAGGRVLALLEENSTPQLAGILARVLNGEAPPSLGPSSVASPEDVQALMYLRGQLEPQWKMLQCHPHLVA
Description: Inhibition of HDAC10 assessed as blockade of decorboxylation of carboxyfluorescein labeled acetylated peptide substrate after 17 hrs

Assay [4] has as its target T3, Protein deacetylase HDAC6 (Homo sapiens, UniProt Q9UBN7).
T3 sequence (Q9UBN7 whole entry): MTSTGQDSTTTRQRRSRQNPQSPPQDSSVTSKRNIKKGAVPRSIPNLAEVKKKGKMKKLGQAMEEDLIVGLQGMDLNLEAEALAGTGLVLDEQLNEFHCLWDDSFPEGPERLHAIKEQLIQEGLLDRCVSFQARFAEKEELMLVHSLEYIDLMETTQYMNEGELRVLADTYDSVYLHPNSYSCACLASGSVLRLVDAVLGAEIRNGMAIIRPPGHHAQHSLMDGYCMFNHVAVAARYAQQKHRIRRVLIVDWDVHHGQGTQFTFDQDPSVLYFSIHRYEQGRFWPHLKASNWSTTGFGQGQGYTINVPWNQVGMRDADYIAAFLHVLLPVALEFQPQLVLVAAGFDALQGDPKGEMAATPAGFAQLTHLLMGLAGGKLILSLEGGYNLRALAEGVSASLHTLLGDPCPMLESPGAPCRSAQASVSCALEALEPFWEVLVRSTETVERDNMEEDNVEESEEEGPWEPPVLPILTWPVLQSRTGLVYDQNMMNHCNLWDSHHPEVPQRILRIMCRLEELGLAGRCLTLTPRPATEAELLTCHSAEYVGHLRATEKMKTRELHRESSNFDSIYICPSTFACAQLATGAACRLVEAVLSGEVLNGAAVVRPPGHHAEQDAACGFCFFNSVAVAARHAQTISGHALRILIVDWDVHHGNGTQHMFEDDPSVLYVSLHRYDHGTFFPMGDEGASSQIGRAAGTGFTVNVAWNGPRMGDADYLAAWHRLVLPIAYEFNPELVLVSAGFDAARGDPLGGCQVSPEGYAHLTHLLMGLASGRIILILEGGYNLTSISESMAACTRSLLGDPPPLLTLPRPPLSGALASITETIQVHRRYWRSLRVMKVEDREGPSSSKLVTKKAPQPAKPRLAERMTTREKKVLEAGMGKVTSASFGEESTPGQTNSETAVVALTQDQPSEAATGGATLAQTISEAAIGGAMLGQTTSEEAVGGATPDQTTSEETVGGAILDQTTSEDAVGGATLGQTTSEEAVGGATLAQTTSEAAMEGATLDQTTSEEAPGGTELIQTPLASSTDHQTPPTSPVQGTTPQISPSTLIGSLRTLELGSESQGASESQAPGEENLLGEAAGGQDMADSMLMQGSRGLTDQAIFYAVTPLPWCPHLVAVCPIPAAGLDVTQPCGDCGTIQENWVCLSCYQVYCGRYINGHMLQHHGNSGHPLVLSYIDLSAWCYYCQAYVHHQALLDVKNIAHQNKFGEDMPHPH
Description: Inhibition of HDAC6 assessed as blockade of decorboxylation of carboxyfluorescein labeled acetylated peptide substrate after 17 hrs

Assay [5] concerns BXPC-3. Kind of assay: cells. As to conditions: Homo sapiens, BXPC-3, 72 h.
Assay [6] concerns HuP-T3. Kind of assay: cells. As to conditions: Homo sapiens, HuP-T3, 72 h.
In assay [7] the test system is MIA PaCa-2. Put plainly: cells. As to conditions: Homo sapiens, MIA PaCa-2, 72 h.
Assay [8] can be described thus: cells. As to conditions: Homo sapiens, Panc 04.03, 72 h.
Assay [9] is described as follows: cells. The note with it: Homo sapiens, SU.86.86, 72 h.
Assay [10] addresses Histone deacetylase 2 (Homo sapiens, UniProt Q92769).
Description: Inhibition of HDAC2 assessed as blockade of decorboxylation of carboxyfluorescein labeled acetylated peptide substrate after 17 hrs
Assay [11] has as its target Histone deacetylase 1 (Homo sapiens, UniProt Q13547).
Description: Inhibition of HDAC1 assessed as blockade of decorboxylation of carboxyfluorescein labeled acetylated peptide substrate after 17 hrs

Chain of Histone deacetylase 3 (O15379 whole entry): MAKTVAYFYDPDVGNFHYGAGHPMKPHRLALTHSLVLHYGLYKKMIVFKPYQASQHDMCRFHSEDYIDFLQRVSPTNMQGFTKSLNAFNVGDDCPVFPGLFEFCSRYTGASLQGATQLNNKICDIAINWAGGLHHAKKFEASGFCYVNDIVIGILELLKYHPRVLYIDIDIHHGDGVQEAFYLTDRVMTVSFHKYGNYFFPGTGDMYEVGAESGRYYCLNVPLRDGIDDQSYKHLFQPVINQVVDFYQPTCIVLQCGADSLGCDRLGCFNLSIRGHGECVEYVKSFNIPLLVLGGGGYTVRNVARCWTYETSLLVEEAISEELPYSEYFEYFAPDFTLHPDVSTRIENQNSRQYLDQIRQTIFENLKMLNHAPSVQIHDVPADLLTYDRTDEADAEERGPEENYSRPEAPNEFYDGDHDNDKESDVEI
Chain of Histone deacetylase 1 (Q13547 whole entry): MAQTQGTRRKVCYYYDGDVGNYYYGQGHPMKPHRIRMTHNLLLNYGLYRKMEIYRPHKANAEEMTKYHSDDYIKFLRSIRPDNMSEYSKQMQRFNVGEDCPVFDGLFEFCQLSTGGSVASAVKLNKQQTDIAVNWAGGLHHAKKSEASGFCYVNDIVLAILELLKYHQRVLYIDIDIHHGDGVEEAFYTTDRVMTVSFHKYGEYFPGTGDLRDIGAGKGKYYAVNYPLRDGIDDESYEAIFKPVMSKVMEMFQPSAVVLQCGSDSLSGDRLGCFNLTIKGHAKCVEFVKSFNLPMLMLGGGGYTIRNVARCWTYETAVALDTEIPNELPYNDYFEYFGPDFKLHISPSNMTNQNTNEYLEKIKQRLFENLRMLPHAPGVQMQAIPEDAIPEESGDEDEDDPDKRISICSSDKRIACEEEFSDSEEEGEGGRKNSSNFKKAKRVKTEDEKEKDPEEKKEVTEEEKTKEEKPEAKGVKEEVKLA
Chain of Histone deacetylase 2 (Q92769 whole entry): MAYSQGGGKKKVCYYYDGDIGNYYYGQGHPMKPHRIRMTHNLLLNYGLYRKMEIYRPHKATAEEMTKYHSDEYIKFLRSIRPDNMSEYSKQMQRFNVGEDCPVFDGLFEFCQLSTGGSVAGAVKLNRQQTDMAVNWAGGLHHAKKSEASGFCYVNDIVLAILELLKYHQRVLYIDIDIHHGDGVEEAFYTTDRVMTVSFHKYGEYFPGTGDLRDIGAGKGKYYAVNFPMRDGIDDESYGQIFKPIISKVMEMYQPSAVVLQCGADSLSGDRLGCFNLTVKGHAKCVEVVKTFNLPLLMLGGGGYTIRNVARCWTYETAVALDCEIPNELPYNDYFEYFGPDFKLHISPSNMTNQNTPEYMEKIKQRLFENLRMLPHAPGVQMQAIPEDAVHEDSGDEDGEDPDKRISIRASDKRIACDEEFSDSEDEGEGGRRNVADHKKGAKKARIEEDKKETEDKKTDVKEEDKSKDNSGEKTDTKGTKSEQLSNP

For `Nc1ccccc1NC(=O)CCCCCCC(=O)Nc1cccc(-n2cc(-c3ccccc3)nn2)c1`, the pIC50 was 6.91 in assay [1]; below 4.52 in [2]; below 4.52 in [3]; below 4.52 in assay [4]; below 4.30 in assay [5]; below 4.30 in [6]. Further, the negative logarithm of the IC50 (pIC50) was below 4.30 in assay [7], below 4.30 in assay [8] and 4.49 in assay [9].
For the compound `O=C(CCCCCCC(=O)Nc1cccc(-c2cn(-c3ccc(C(F)(F)F)cc3)nn2)c1)NO`, the pIC50 was 7.55 in assay [10]; 8.06 in assay [11]; 5.28 in assay [2]; 7.84 in assay [3]; 8.54 in [4].
The matching figures for `O=C(CCCCCCC(=O)Nc1cccc(-c2cn(-c3cc(CO)cc(CO)c3)nn2)c1)NO`: 7.56, 8.24, 5.88, 8.24 and 8.72.
The matching figures for `O=C(CCCCCCC(=O)Nc1cccc(-c2cn(-c3ccc(F)cc3)nn2)c1)NO`: 7.22, 7.50, 4.92, 7.48 and 8.08.
In the case of `O=C(CCCCCCC(=O)Nc1cccc(-c2cn(-c3ccc(I)cc3)nn2)c1)NO`, the pIC50 in assay [10] was 7.61; in assay [11] it was 8.10; in assay [2], below 4.52; in assay [3] it was 7.97; in [4] it was 8.66; in [5] it was 5.96. The negative-log IC50 (pIC50) in assay [6] was 5.85; in assay [7], 5.63; in [8], 5.63; in assay [9], 5.11.
In turn, `O=C(CCCCCCC(=O)Nc1cccc(-c2cn(-c3cc(F)cc(F)c3)nn2)c1)NO` gave a negative-log IC50 (pIC50) in [11] of 8.28.
As for `O=C(CCCCCCC(=O)Nc1cccc(-c2cn(C3CCCCC3)nn2)c1)NO`, the negative logarithm of the IC50 (pIC50) in assay [10] is 7.56; in [1], 8.43; in assay [11], 8.07; in [2] it was 5.92; in assay [3] it was 8.01; in [4], 8.48. Moreover, the pIC50 is 5.40 in assay [5]; 6.40 in assay [6]; 7.00 in [7]; 6.30 in assay [8]; 7.00 in assay [9].
On to `O=C(CCCCCCC(=O)Nc1cccc(-n2cc(-c3ccccc3)nn2)c1)NO`, for which the negative-log IC50 (pIC50) in [10] was 7.60; in assay [11] it was 8.34; in assay [2], 5.38; in assay [3] it was 8.17; in assay [4] it was 8.51.
Consider `O=C(CCCCCCC(=O)Nc1cccc(-n2cc(C3CCCCC3)nn2)c1)NO`, for which the negative-log IC50 (pIC50) in [10] was 7.32; in assay [1], 8.28; in [11] it was 7.92; in assay [2], 5.56; in [3], 7.78; in assay [4], 8.37. For the same compound, the negative logarithm of the IC50 (pIC50) in assay [5] is 5.70; in assay [6], 6.40; in [7] it was 7.00; in assay [8] it was 6.30; in [9], 6.05.
As for `O=C(CCCCCCC(=O)Nc1cccc(-c2cn(-c3ccccc3)nn2)c1)NO`, in [8], the pIC50 is above 6.30.

The pIC50 is −log10 of the IC50, conventionally taken in molar units.
